# Target: T1, JAK3 (recombinant human kinase domain; h-jak3(810-1124)) (Homo sapiens, UniProt P52333)
# T1 construct: h-jak3(810- 1124)-sf9-c; made in house; host or cells: Sf9 insect cells
# Assay: Determination of IC50 of Janus Kinase (JAK) inhibition: JAK3, radioactive end-point assay with 33P-ATP
# Type: biochemical
# Conditions: JAK3 kinase domain; ATP 1.5 uM, peptide 50 uM, 20 minutes, room temperature, 10% DMSO; read-out: Ic50 h-jak3(810-1124)-sf9-c:no additive
# T1 sequence (P52333 810-1124): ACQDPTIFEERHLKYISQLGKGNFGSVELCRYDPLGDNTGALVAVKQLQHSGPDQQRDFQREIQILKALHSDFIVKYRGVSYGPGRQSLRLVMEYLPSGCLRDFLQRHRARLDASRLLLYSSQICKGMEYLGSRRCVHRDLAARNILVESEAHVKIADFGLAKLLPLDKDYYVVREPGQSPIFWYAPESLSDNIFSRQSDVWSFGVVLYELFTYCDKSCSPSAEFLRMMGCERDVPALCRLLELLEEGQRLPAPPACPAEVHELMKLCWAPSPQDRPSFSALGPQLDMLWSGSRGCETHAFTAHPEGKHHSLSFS
row,Structure (SMILES),IC50 [nM]
1,"C[C@H](NC(=O)c1c[nH]c2ncc(-c3ccc(C(=O)NCC(C)(C)C)s3)nc12)C(C)(C)C [Example I-210, 2-[5-(2,2-Dimethyl-propylcarbamoyl)-thiophen-2-yl]-5H-pyrrolo[2,3-b]pyrazine-7-carboxylic acid ((S)-1,2,2-trimethyl-propyl)-amide]",0.71
2,"COc1ccc(OC)c(CNC(=O)c2ccc(-c3cnc4[nH]cc(C(=O)N[C@@H](C)C(C)(C)C)c4n3)s2)c1 [Example I-204, 2-[5-(2,5-Dimethoxy-benzylcarbamoyl)-thiophen-2-yl]-5H-pyrrolo[2,3-b]pyrazine-7-carboxylic acid ((S)-1,2,2-trimethyl-propyl)-amide]",0.56
3,"C[C@@H](NC(=O)c1c[nH]c2ncc(C3CC3)nc12)C1(C#N)CCCCC1 [Example I-117, 2-Cyclopropyl-5H-pyrrolo[2,3-b]pyrazine-7-carboxylic acid [(R)-1-(1-cyano-cyclohexyl)-ethyl]-amide]",26.8
4,"C[C@H](Cc1cnc[nH]1)NC(=O)c1ccc(-c2cnc3[nH]cc(C(=O)N[C@@H](C)C(C)(C)C)c3n2)s1 [Example I-199, 2-{5-[(R)-2-(3H-Imidazol-4-yl)-1-methyl-ethylcarbamoyl]-thiophen-2-yl}-5H-pyrrolo[2,3-b]pyrazine-7-carboxylic acid ((S)-1,2,2-trimethyl-propyl)-amide]",0.65
5,"C[C@H](NC(=O)c1c[nH]c2ncc(Oc3ccc(F)cc3F)nc12)C(C)(C)O [Example I-125, 2-(2,4-Difluoro-phenoxy)-5H-pyrrolo[2,3-b]pyrazine-7-carboxylic acid ((S)-2-hydroxy-1,2-dimethyl-propyl)-amide]",502
6,"C[C@H](NC(=O)c1c[nH]c2ncc(-c3ccc(C(=O)N[C@H]4C[C@@H]4c4ccccc4)s3)nc12)C(C)(C)C [Example I-191, 2-[5-((1S,2R)-2-Phenyl-cyclopropyl-carbamoyl)-thiophen-2-yl]-5H-pyrrolo[2,3-b]pyrazine-7-carboxylic acid ((S)-1,2,2-trimethyl-propyl)-amide]",0.55
7,"CC(NC(=O)c1c[nH]c2ncc(Oc3ccccc3F)nc12)C1CC1 (centres unmarked) [Example I-114, 2-(2-Fluoro-phenoxy)-5H-pyrrolo[2,3-b]pyrazine-7-carboxylic acid (1-cyclopropyl-ethyl)-amide]",63.4
8,"Cc1ccc(F)c(-n2cnc(-c3cnc4[nH]cc(C(=O)N[C@@H](C)C(C)(C)C)c4n3)c2)c1 [Example I-148, 2-[1-(2-Fluoro-5-methyl-phenyl)-1H-imidazol-4-yl]-5H-pyrrolo[2,3-b]pyrazine-7-carboxylic acid ((S)-1,2,2-trimethyl-propyl)-amide]",3.25
9,"CN(C)c1cnc2[nH]cc(C(=O)NCC(C)(C)CO)c2n1 [Example I-4, 2-Dimethylamino-5H-pyrrolo[2,3-b]pyrazine-7-carboxylic acid (3-hydroxy-2,2-dimethyl-propyl)-amide]",34.9
10,"CC(C)C(C#N)NC(=O)c1c[nH]c2ncc(C3CC3)nc12 (centres unmarked) [Example I-89, 2-Cyclopropyl-5H-pyrrolo[2,3-b]pyrazine-7-carboxylic acid (1-cyano-2-methyl-propyl)-amide]",13.4
11,"CC(C)NC(=O)c1c[nH]c2ncc(Oc3ccc4c(c3)[C@H](NC(=O)C(C)(C)C)CC4)nc12 [Example I-285, 2-[(R)-3-(2,2-Dimethyl-propionylamino)-indan-5-yloxy]-5H-pyrrolo[2,3-b]pyrazine-7-carboxylic acid isopropylamide]",234
12,"CC(C)NC(=O)c1c[nH]c2ncc(Oc3ccccc3OC(F)(F)F)nc12 [Example I-253, 2-(2-Trifluoromethoxy-phenoxy)-5H-pyrrolo[2,3-b]pyrazine-7-carboxylic acid isopropylamide]",2170
13,"C[C@H](NC(=O)c1c[nH]c2ncc(C3=CCCC3)nc12)C(C)(C)O [Example I-2, 2-Cyclopent-1-enyl-5H-pyrrolo[2,3-b]pyrazine-7-carboxylic acid ((S)-2-hydroxy-1,2-dimethyl-propyl)-amide]",5.23
14,"Cc1cc(-c2cnc3[nH]cc(C(=O)N[C@@H](C)C(C)(C)C)c3n2)sc1C(=O)N1CC(CO)(CO)C1 [Example I-222, 2-[5-(3,3-Bis-hydroxymethyl-azetidine-1-carbonyl)-4-methyl-thiophen-2-yl]-5H-pyrrolo[2,3-b]pyrazine-7-carboxylic acid ((S)-1,2,2-trimethyl-propyl)-amide]",0.11
15,"C[C@H](NC(=O)c1c[nH]c2ncc(C3CC3)nc12)C(C)(C)CS(C)(=O)=O [Example I-144, 2-Cyclopropyl-5H-pyrrolo[2,3-b]pyrazine-7-carboxylic acid ((S)-3-methanesulfonyl-1,2,2-trimethyl-propyl)-amide]",3.4
16,"N#CC[C@@H](NC(=O)c1c[nH]c2ncc(C3CC3)nc12)C1CC1 [Example I-135, 2-Cyclopropyl-5H-pyrrolo[2,3-b]pyrazine-7-carboxylic acid ((R)-2-cyano-1-cyclopropyl-ethyl)-amide]",20.6
17,"C[C@H](NC(=O)c1c[nH]c2ncc(-c3ccc(C(=O)Nc4ccc5c(c4)CCCC5)s3)nc12)C(C)(C)C [Example I-200, 2-[5-(5,6,7,8-Tetrahydro-naphthalen-2-ylcarbamoyl)-thiophen-2-yl]-5H-pyrrolo[2,3-b]pyrazine-7-carboxylic acid ((S)-1,2,2-trimethyl-propyl)-amide]",0.73
18,"CC(=O)N1CCC(CNC(=O)c2c[nH]c3ncc(C4CC4)nc23)C1 (centres unmarked) [Example I-137, 2-Cyclopropyl-5H-pyrrolo[2,3-b]pyrazine-7-carboxylic acid (1-acetyl-pyrrolidin-3-ylmethyl)-amide]",346

row,Structure (SMILES),IC50 [nM]
1,"CC[C@H](NC(=O)c1c[nH]c2ncc(C3CC3)nc12)C(C)(C)O [Example I-29, 2-Cyclopropyl-5H-pyrrolo[2,3-b]pyrazine-7-carboxylic acid ((S)-1-ethyl-2-hydroxy-2-methyl-propyl)-amide]",54.3
2,"CC(C)NC(=O)c1c[nH]c2ncc(Oc3ccccc3Cc3ccccc3)nc12 [Example I-237, 2-(2-Benzyl-phenoxy)-5H-pyrrolo[2,3-b]pyrazine-7-carboxylic acid isopropylamide]",5360
3,"N#CCCNC(=O)c1c[nH]c2ncc(C3CC3)nc12 [Example I-13, 2-Cyclopropyl-5H-pyrrolo[2,3-b]pyrazine-7-carboxylic acid (2-cyano-ethyl)-amide]",436
4,"C[C@@H](CO)NC(=O)c1c[nH]c2ncc(C3CC3)nc12 [Example I-57, 2-Cyclopropyl-5H-pyrrolo[2,3-b]pyrazine-7-carboxylic acid ((S)-2-hydroxy-1-methyl-ethyl)-amide]",217
5,"COCC(C)(C)CNC(=O)c1c[nH]c2ncc(C3CC3)nc12 [Example I-59, 2-Cyclopropyl-5H-pyrrolo[2,3-b]pyrazine-7-carboxylic acid (3-methoxy-2,2-dimethyl-propyl)-amide]",58.9
6,"C[C@H](NC(=O)c1c[nH]c2ncc(-c3cccs3)nc12)C(C)(C)C [Example I-142, 2-Thiophen-2-yl-5H-pyrrolo[2,3-b]pyrazine-7-carboxylic acid ((S)-1,2,2-trimethyl-propyl)-amide]",0.18
7,"CCNC(=O)c1c[nH]c2ncc(Oc3ccc4ccccc4c3)nc12 [Example I-262, 2-(Naphthalen-2-yloxy)-5H-pyrrolo[2,3-b]pyrazine-7-carboxylic acid ethylamide]",1870
8,"N#CCCCNC(=O)c1c[nH]c2ncc(C3CC3)nc12 [Example I-33, 2-Cyclopropyl-5H-pyrrolo[2,3-b]pyrazine-7-carboxylic acid (3-cyano-propyl)-amide]",493
9,"CCC(CC)NC(=O)c1c[nH]c2ncc(C3CC3)nc12 [Example I-26, 2-Cyclopropyl-5H-pyrrolo[2,3-b]pyrazine-7-carboxylic acid (1-ethyl-propyl)-amide]",4.08
10,"CC(C)NC(=O)c1c[nH]c2ncc(Oc3ccc4c(c3)[C@H](NC(=O)C3CC3)CC4)nc12 [Example I-284, 2-[(R)-3-(Cyclopropane-carbonyl-amino)-indan-5-yloxy]-5H-pyrrolo[2,3-b]pyrazine-7-carboxylic acid isopropylamide]",50
11,"CC(C)(C)[C@@H](CC#N)NC(=O)c1c[nH]c2ncc(C3CC3)nc12 [Example I-76, 2-Cyclopropyl-5H-pyrrolo[2,3-b]pyrazine-7-carboxylic acid ((R)-1-cyanomethyl-2,2-dimethyl-propyl)-amide]",132
12,"CC(C)NC(=O)c1c[nH]c2ncc(Oc3ccc4[nH]ccc4c3)nc12 [Example I-277, 2-(1H-Indol-5-yloxy)-5H-pyrrolo[2,3-b]pyrazine-7-carboxylic acid isopropylamide]",229
13,"C[C@H](NC(=O)c1c[nH]c2ncc(-c3ccc(C(=O)NCC4CCCC4)s3)nc12)C(C)(C)C [Example I-168, 2-[5-(Cyclo-pentylmethyl-carbamoyl)-thiophen-2-yl]-5H-pyrrolo[2,3-b]pyrazine-7-carboxylic acid ((S)-1,2,2-trimethyl-propyl)-amide]",0.22
14,"CC(C)NC(=O)c1c[nH]c2ncc(Oc3cccc4ccccc34)nc12 [Example I-241, 2-(Naphthalen-1-yloxy)-5H-pyrrolo[2,3-b]pyrazine-7-carboxylic acid isopropylamide]",677
15,"C[C@@H](NC(=O)c1c[nH]c2ncc(C3CC3)nc12)C1(C#N)CCCC1 [Example I-100, 2-Cyclopropyl-5H-pyrrolo[2,3-b]pyrazine-7-carboxylic acid [(R)-1-(1-cyano-cyclopentyl)-ethyl]-amide]",38.5
16,"C[C@H](NC(=O)c1c[nH]c2ncc(-c3cnn(C)c3)nc12)C1CCCCC1 [Example I-140, 2-(1-Methyl-1H-pyrazol-4-yl)-5H-pyrrolo[2,3-b]pyrazine-7-carboxylic acid ((S)-1-cyclohexyl-ethyl)-amide]",0.88
17,"CC(C)NC(=O)c1c[nH]c2ncc(Oc3ccc4c(c3)C(=O)CC4)nc12 [Example I-297, 2-(3-Oxo-indan-5-yloxy)-5H-pyrrolo[2,3-b]pyrazine-7-carboxylic acid isopropylamide]",573
